# Target: hSTING(R232) (Homo sapiens, UniProt Q86WV6, H232R)
# Test: Luciferase reporter assay in HEK293T-hSTING-Luciferase cells, R232 (wild type) human STING
# Type: cell-based
# Conditions: 20 hr stimulation, read-out: R232 human activity (EC50 range)
# In short: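 Clonal HEK293T cells stably expressing STING from a pUNO-1 plasmid plus an ISRE/ISG54-driven secreted luciferase reporter; 5×10^5 cells stimulated with compound for 20 hr. Supernatant luciferase read by luminescence, giving fold-induction over baseline and EC50.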
# hSTING(R232), sequence (Q86WV6 whole entry H232R): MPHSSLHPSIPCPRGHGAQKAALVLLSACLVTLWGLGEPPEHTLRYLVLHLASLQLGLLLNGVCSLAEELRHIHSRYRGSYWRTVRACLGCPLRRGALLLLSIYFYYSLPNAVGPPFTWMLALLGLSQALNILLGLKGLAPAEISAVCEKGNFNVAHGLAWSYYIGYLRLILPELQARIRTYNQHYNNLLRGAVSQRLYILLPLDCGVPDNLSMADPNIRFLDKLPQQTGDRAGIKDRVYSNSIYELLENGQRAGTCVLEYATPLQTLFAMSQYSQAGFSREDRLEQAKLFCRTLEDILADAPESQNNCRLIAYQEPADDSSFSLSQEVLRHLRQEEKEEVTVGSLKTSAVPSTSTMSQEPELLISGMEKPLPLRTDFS
row,SMILES,EC50 [nM]
1,"C[C@H]1c2ccc(C(=O)N(CCO)Cc3c(F)cc(F)cc3F)cc2N(Cc2c(F)cccc2Cl)C(=O)N1C [Example 151, (S)-1-(2-Chloro-6-fluorobenzyl)-N-(2-hydroxyethyl)-3,4-dimethyl-2-oxo-N-(2,4,6-trifluorobenzyl)-1,2,3,4-tetrahydroquinazoline-7-carboxamide]",> 10000
2,"CC1c2ccc(C(=O)NCc3c(F)cc(F)cc3F)cc2N(Cc2cc(F)cc(F)c2)C(=O)N1C (centres unmarked) [Example 152, 1-(3,5-difluorobenzyl)-3,4-dimethyl-2-oxo-N-(2,4,6-trifluorobenzyl)-1,2,3,4-tetrahydroquinazoline-7-carboxamide]",< 1000
3,"COc1cccc(F)c1CN1C(=O)N(C)C(C)c2ccc(C(=O)NCc3c(F)cc(F)cc3F)cc21 (centres unmarked) [Example 155, 1-(2-fluoro-6-methoxybenzyl)-3,4-dimethyl-2-oxo-N-(2,4,6-trifluorobenzyl)-1,2,3,4-tetrahydroquinazoline-7-carboxamide]",1000 to 10000
4,"CC1c2ccc(C(=O)NCc3c(F)cc(F)cc3F)cc2N(Cc2cc(F)cc(F)c2)C(=O)N1C (centres unmarked) [Example 156, 1-(3,5-difluorobenzyl)-3,4-dimethyl-2-oxo-N-(2,4,6-trifluorobenzyl)-1,2,3,4-tetrahydroquinazoline-7-carboxamide]",< 1000
5,"CC1c2ccc(C(=O)NCc3c(F)cc(F)cc3F)cc2N(Cc2cc(F)cc(F)c2)C(=O)N1C (centres unmarked) [Example 157, 1-(3,5-difluorobenzyl)-3,4-dimethyl-2-oxo-N-(2,4,6-trifluorobenzyl)-1,2,3,4-tetrahydroquinazoline-7-carboxamide]",< 1000
6,"CC1c2ccc(C(=O)NCc3c(F)cc(F)cc3F)cc2N(Cc2c(F)cccc2Br)C(=O)N1C (centres unmarked) [Example 158, 1-(2-bromo-6-fluorobenzyl)-3,4-dimethyl-2-oxo-N-(2,4,6-trifluorobenzyl)-1,2,3,4-tetrahydroquinazoline-7-carboxamide]",< 1000
7,"CC1c2ccc(C(=O)NCc3c(F)cc(F)cc3F)cc2N(Cc2c(F)cccc2Br)C(=O)N1C (centres unmarked) [Example 159, 1-(2-bromo-6-fluorobenzyl)-3,4-dimethyl-2-oxo-N-(2,4,6-trifluorobenzyl)-1,2,3,4-tetrahydroquinazoline-7-carboxamide]",< 1000
8,"CC1c2ccc(C(=O)NCc3c(F)cc(F)cc3F)cc2N(Cc2c(O)cccc2F)C(=O)N1C (centres unmarked) [Example 160, 1-(2-fluoro-6-hydroxybenzyl)-3,4-dimethyl-2-oxo-N-(2,4,6-trifluorobenzyl)-1,2,3,4-tetrahydroquinazoline-7-carboxamide]",< 1000
9,"Cc1cccc(F)c1CN1C(=O)N(C)C(C)c2ccc(C(=O)NCc3c(F)cc(F)cc3F)cc21 (centres unmarked) [Example 161, 1-(2-fluoro-6-methylbenzyl)-3,4-dimethyl-2-oxo-N-(2,4,6-trifluorobenzyl)-1,2,3,4-tetrahydroquinazoline-7-carboxamide]",1000 to 10000
10,"Cc1ccc(Cl)c(CN2C(=O)N(C)C(C)c3ccc(C(=O)NCc4c(F)cc(F)cc4F)cc32)c1F (centres unmarked) [Example 163, 1-(6-chloro-2-fluoro-3-methylbenzyl)-3,4-dimethyl-2-oxo-N-(2,4,6-trifluorobenzyl)-1,2,3,4-tetrahydroquinazoline-7-carboxamide]",< 1000
11,"Cc1ccc(CN2C(=O)N(C)[C@@H](C)c3ccc(C(=O)NCc4c(F)cc(F)cc4F)cc32)c(F)c1 [Example 170, (S)-1-(2-fluoro-4-methylbenzyl)-3,4-dimethyl-2-oxo-N-(2,4,6-trifluorobenzyl)-1,2,3,4-tetrahydroquinazoline-7-carboxamide]",< 1000
12,"C[C@@H]1c2ccc(C(=O)NCc3c(F)cc(F)cc3F)cc2N(Cc2c(O)cccc2F)C(=O)N1C [Example 172, (R)-1-(2-fluoro-6-hydroxybenzyl)-3,4-dimethyl-2-oxo-N-(2,4,6-trifluorobenzyl)-1,2,3,4-tetrahydroquinazoline-7-carboxamide]",1000 to 10000
13,"CC1c2ccc(C(=O)NCc3c(F)cc(F)cc3F)cc2N(Cc2c(N)cccc2F)C(=O)N1C (centres unmarked) [Example 173, 1-(2-amino-6-fluorobenzyl)-3,4-dimethyl-2-oxo-N-(2,4,6-trifluorobenzyl)-1,2,3,4-tetrahydroquinazoline-7-carboxamide]",< 1000
14,"CC1c2ccc(C(=O)NCc3c(F)cc(F)cc3F)cc2N(Cc2ccc(O)cc2F)C(=O)N1C (centres unmarked) [Example 181, 1-(2-fluoro-4-hydroxybenzyl)-3,4-dimethyl-2-oxo-N-(2,4,6-trifluorobenzyl)-1,2,3,4-tetrahydroquinazoline-7-carboxamide]",< 1000
15,"C[C@H]1c2ccc(C(=O)NCc3c(F)cc(F)cc3F)cc2N(Cc2c(F)ccc(C(N)=O)c2Cl)C(=O)N1C [Example 186, (S)-1-(3-carbamoyl-2-chloro-6-fluorobenzyl)-3,4-dimethyl-2-oxo-N-(2,4,6-trifluorobenzyl)-1,2,3,4-tetrahydroquinazoline-7-carboxamide]",< 1000
16,"CC1NC(=O)N(Cc2c(F)cccc2Cl)c2cc(C(=O)NCc3c(F)cc(F)cc3F)ccc21 (centres unmarked) [Example 189, 1-(2-chloro-6-fluorobenzyl)-4-methyl-2-oxo-N-(2,4,6-trifluorobenzyl)-1,2,3,4-tetrahydroquinazoline-7-carboxamide]",1000 to 10000
17,"CC1c2ccc(C(=O)NCc3c(F)cc(F)cc3F)cc2N(Cc2ccccc2)C(=O)N1C (centres unmarked) [Example 190, 1-benzyl-3,4-dimethyl-2-oxo-N-(2,4,6-trifluorobenzyl)-1,2,3,4-tetrahydroquinazoline-7-carboxamide]",< 1000
18,"CC1c2ccc(C(=O)NCc3c(F)cc(F)cc3F)cc2N(Cc2ccccc2)C(=O)N1C (centres unmarked) [Example 191, 1-benzyl-3,4-dimethyl-2-oxo-N-(2,4,6-trifluorobenzyl)-1,2,3,4-tetrahydroquinazoline-7-carboxamide]",< 1000
19,"CC1c2ccc(C(=O)NCc3c(F)cc(F)cc3F)cc2N(Cc2ccccc2)C(=O)N1C (centres unmarked) [Example 192, 1-benzyl-3,4-dimethyl-2-oxo-N-(2,4,6-trifluorobenzyl)-1,2,3,4-tetrahydroquinazoline-7-carboxamide]",< 1000
20,"CC1c2ccc(C(=O)NCc3c(F)cc(F)cc3F)cc2N(Cc2ccccc2F)C(=O)N1C (centres unmarked) [Example 194, 1-(2-fluorobenzyl)-3,4-dimethyl-2-oxo-N-(2,4,6-trifluorobenzyl)-1,2,3,4-tetrahydroquinazoline-7-carboxamide]",< 1000
21,"CC1c2ccc(C(=O)NCc3c(F)cc(F)cc3F)cc2N(Cc2c(F)cccc2F)C(=O)N1C (centres unmarked) [Example 195, 1-(2,6-difluorobenzyl)-3,4-dimethyl-2-oxo-N-(2,4,6-trifluorobenzyl)-1,2,3,4-tetrahydroquinazoline-7-carboxamide]",< 1000
22,"CC1c2ccc(C(=O)NCc3ccc(F)cc3F)cc2N(Cc2ccccc2F)C(=O)N1C (centres unmarked) [Example 197, N-(2,4-difluorobenzyl)-1-(2-fluorobenzyl)-3,4-dimethyl-2-oxo-1,2,3,4-tetrahydroquinazoline-7-carboxamide]",< 1000
23,"Cc1cc(CN2C(=O)N(C)C(C)c3ccc(C(=O)NCc4c(F)cc(F)cc4F)cc32)ccn1 (centres unmarked) [Example 198, 3,4-dimethyl-1-((2-methylpyridin-4-yl)methyl)-2-oxo-N-(2,4,6-trifluorobenzyl)-1,2,3,4-tetrahydroquinazoline-7-carboxamide]",< 1000
